Reference: US10315996B2, “ROR gamma (RORγ) modulators” (LEAD PHARMA HOLDING B.V., priority 2015, dated 2019)

target: T1, RORγ (Homo sapiens, UniProt P51449); assay: RORγ GAL4 reporter gene assay; format: cell-based; details: inhibition of RORγ activity, GAL4-RORγ-LBD luciferase reporter in 293FT cells, overnight incubation; read-out: mean pIC50 (converted)
T1 construct: expressed in transfected cells; host or cells: 293FT cells (Invitrogen), expression vector pFN26A (Promega)
T1 sequence (P51449 269-508 limits assumed): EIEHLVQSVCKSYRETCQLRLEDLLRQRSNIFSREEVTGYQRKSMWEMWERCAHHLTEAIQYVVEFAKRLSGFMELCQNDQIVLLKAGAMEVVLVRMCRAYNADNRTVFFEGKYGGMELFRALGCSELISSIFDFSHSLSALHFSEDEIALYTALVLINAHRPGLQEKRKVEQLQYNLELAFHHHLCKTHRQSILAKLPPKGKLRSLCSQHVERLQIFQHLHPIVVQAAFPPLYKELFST
Method in brief: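 293FT cells were transiently co-transfected with GAL4-DBD–RORγ-LBD (or GAL4-VP16 control) and a 9×UAS luc2P reporter, then plated at 60,000 cells/well. Compound was added at final 0.2% DMSO for 16-24 h at 37 °C, and inhibition was measured by firefly luciferase luminescence.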

| IC50 [nM] | SMILES |
| --- | --- |
| ≤ 100 | CCN(C(=O)c1ccc(NC(=O)Cc2ccc(S(=O)(=O)CC3CC3)cc2)c(C)c1)c1ccccc1 [Example 105, 4-[2-(4-cyclopropylmethanesulfonylphenyl)acetamido]-N-ethyl-3-methyl-N-phenylbenzamide] |
| ≤ 1000 | CCN(C(=O)c1ccc(NC(=O)Cc2ccc(S(=O)(=O)NC3CC3)cc2)c(C)c1)c1ccccc1 [Example 106, 4-{2-[4-(cyclopropylsuIfamoyl)phenyl]acetamido}-N-ethyl-3-methyl-N-phenylbenzamide] |
| ≤ 100 | CCN(C(=O)c1ccc(NC(=O)Cc2ccc(S(=O)(=O)NC3CC3)cc2)cc1)c1nc(C)c(C)s1 [Example 107, 4-{2-[4-(cyclopropylsulfamoyl)phenyl]acetamido}-N-(4-methyl-5-methyl-1,3-thiazol-2-yl)-N-ethyl-benzamide] |
| ≤ 100 | CCN(C(=O)c1ccc(NC(=O)Cc2ccc(S(=O)(=O)CC3CC3)cc2)cc1)c1c(C)noc1C [Example 108, 4-[2-(4-cyclopropylmethanesulfonylphenyl)acetamido]-N-(dimethyl-1,2-oxazol-4-yl)-N-ethyl-benzamide] |
| ≤ 10 | O=C(Cc1ccc(S(=O)(=O)NC2CC2)cc1)Nc1ccc(C(=O)N(CC(F)(F)F)c2ccccc2)cc1 [Example 109, 4-{2-[4-(cyclopropylsulfamoyl)phenyl]acetamido}-N-phenyl-N-(2,2,2-trifluoroethyl) benzamide] |
| ≤ 1000 | CCN(C(=O)c1ccc(NC(=O)Cc2ccc(S(=O)(=O)NC3CC3)cc2)cc1)c1c(C)noc1C [Example 110, 4-{2-[4-(cyclopropylsulfamoyl)phenyl]acetamido}-N-(dimethyl-1,2-oxazol-4-yl)-N-ethylbenzamide] |
| ≤ 1000 | CCN(C(=O)c1ccc(NC(=O)Cc2ccc(S(=O)(=O)NC3CC3)cc2)cc1F)c1ccccc1 [Example 111, 4-{2-[4-(cyclopropylsulfamoyl)phenyl]acetamido}-N-ethyl-2-fluoro-N-phenylbenzamide] |
| ≤ 1000 | CCN(C(=O)c1ccc(NC(=O)Cc2ccc(S(=O)(=O)NC3CC3)cc2)cc1Cl)c1ccccc1 [Example 112, 2-chloro-4-{2-[4-(cyclopropylsulfamoyl)phenyl]acetamido}-N-ethyl-N-phenylbenzamide] |
| ≤ 10 | CC(C)(C)N(Cc1ccccc1)C(=O)c1ccc(NC(=O)Cc2ccc(S(=O)(=O)CC3CC3)cc2)cc1 [Example 113, N-benzyl-N-tert-butyl-4-[2-(4-cyclopropylmethanesulfonylphenyl)acetamido]benzamide] |
| ≤ 100 | O=C(Cc1ccc(S(=O)(=O)CC2CC2)cc1)Nc1ccc(C(=O)N(c2ccccc2)c2ccc(Br)cc2)cc1 [Example 115, N-(4-bromophenyl)-4-[2-(4-cyclopropylmethanesulfonylphenyl)acetamido]-N-phenylbenzamide] |
| ≤ 100 | Cc1ccccc1N(C)C(=O)c1ccc(NC(=O)Cc2ccc(S(=O)(=O)CC3CC3)cc2)cc1F [Example 116, 4-[2-(4-cyclopropylmethanesulfonylphenyl)acetamido]-2-fluoro-N-methyl-N-(2-methylphenyl)benzamide] |
| ≤ 10 | Cc1ccccc1N(C)C(=O)c1ccc(NC(=O)Cc2ccc(S(=O)(=O)CC3CC3)cc2)cc1Cl [Example 117, 2-chloro-4-[2-(4-cyclopropylmethanesulfonylphenyl)acetamido]-N-methyl-N-(2-methylphenyl)benzamide] |
| ≤ 10 | CCN(C(=O)c1ccc(NC(=O)Cc2ccc(S(=O)(=O)CC3CC3)cc2)cc1F)c1ccccc1Cl [Example 118, N-(2-chlorophenyl)-4-[2-(4-cyclopropylmethanesulfonylphenyl)acetamido]-N-ethyl-2-fluorobenzamide] |
| ≤ 10 | CCN(C(=O)c1ccc(NC(=O)Cc2ccc(S(=O)(=O)CC3CC3)cc2)cc1F)c1cccc(C)c1C [Example 119, 4-[2-(4-cyclopropylmethanesulfonylphenyl)acetamido]-N-(2,3-dimethylphenyl)-N-ethyl-2-fluorobenzamide] |
| ≤ 100 | CCN(C(=O)c1ccc(NC(=O)Cc2ccc(S(=O)(=O)CC3CC3)cc2)cc1Cl)c1cccc(C)c1C [Example 120, 2-chloro-4-[2-(4-cyclopropylmethanesulfonylphenyl)acetamido]-N-(2,3-dimethylphenyl)-N-ethylbenzamide] |
| ≤ 100 | CC(C)(C)C1COc2ccccc2N1C(=O)c1ccc(NC(=O)Cc2ccc(S(=O)(=O)CC3CC3)cc2)cc1 (centres unmarked) [Example 121, N-[4-(3-tert-butyl-3,4-dihydro-2H-1,4-benzoxazine-4-carbonyl)phenyl]-2-(4-cyclopropylmethanesulfonylphenyl)acetamide] |
| ≤ 10 | COc1ccccc1N(C)C(=O)c1ccc(NC(=O)Cc2ccc(S(=O)(=O)CC3CC3)cc2)cc1C [Example 122, 4-[2-(4-cyclopropylmethanesulfonylphenyl)acetamido]-N-(2-methoxyphenyl)-N,2-dimethylbenzamide] |
| ≤ 10 | O=C(Cc1ccc(S(=O)(=O)CC2CC2)cc1)Nc1ccc(C(=O)N(CC(F)(F)F)c2ccccc2)c(Cl)c1 [Example 123, 2-chloro-4-[2-(4-cyclopropylmethanesulfonylphenyl)acetamido]-N-phenyl-N-(2,2,2-trifluoroethyl)benzamide] |
| ≤ 10 | COc1ccccc1N(C)C(=O)c1ccc(NC(=O)Cc2ccc(S(=O)(=O)CC3CC3)cc2)cc1F [Example 124, 4-[2-(4-cyclopropylmethanesulfonylphenyl)acetamido]-2-fluoro-N-(2-methoxyphenyl)-N-methylbenzamide] |
| ≤ 10 | COc1ccccc1N(C)C(=O)c1ccc(NC(=O)Cc2ccc(S(=O)(=O)CC3CC3)cc2)cc1Cl [Example 125, 2-chloro-4-[2-(4-cyclopropylmethanesulfonylphenyl)acetamido]-N-(2-methoxyphenyl)-N-methylbenzamide] |
| ≤ 10 | CN(C(=O)c1ccc(NC(=O)Cc2ccc(S(=O)(=O)CC3CC3)cc2)cc1F)c1ccccc1F [Example 126, 4-[2-(4-cyclopropylmethanesulfonylphenyl)acetamido]-2-fluoro-N-(2-fluorophenyl)-N-methylbenzamide] |
| ≤ 10 | CN(C(=O)c1ccc(NC(=O)Cc2ccc(S(=O)(=O)CC3CC3)cc2)cc1Cl)c1ccccc1F [Example 127, 2-chloro-4-[2-(4-cyclopropylmethanesulfonylphenyl)acetamido]-N-(2-fluorophenyl)-N-methylbenzamide] |
| ≤ 10 | CCN(C(=O)c1ccc(NC(=O)Cc2ccc(S(=O)(=O)CC3CC3)cc2)cc1Cl)c1ccccc1Cl [Example 128, 2-chloro-N-(2-chlorophenyl)-4-[2-(4-cyclopropylmethanesulfonylphenyl)acetamido]-N-ethylbenzamide] |
| ≤ 10 | CCN(C(=O)c1ccc(NC(=O)Cc2ccc(S(=O)(=O)CC3CC3)cc2)cc1Cl)c1ccccc1C [Example 129, 2-chloro-4-[2-(4-cyclopropylmethanesulfonylphenyl)acetamido]-N-ethyl-N-(2-methylphenyl)benzamide] |
| ≤ 10 | CC(C)(C)N(C(=O)c1ccc(NC(=O)Cc2ccc(S(=O)(=O)CC3CC3)cc2)cc1)c1ccccc1 [Example 130, N-tert-butyl-4-[2-(4-cyclopropylmethanesulfonylphenyl)acetamido]-N-phenylbenzamide] |
| ≤ 10 | CC(C)(C)N(C(=O)c1ccc(NC(=O)Cc2ccc(S(=O)(=O)NC3CC3)cc2)cc1)c1ccccc1 [Example 131, N-tert-butyl-4-{2-[4-(cyclopropylsulfamoyl)phenyl]acetamido}-N-phenylbenzamide] |
